Target: T1, Monoglyceride lipase (Homo sapiens, UniProt Q99685)
T1 sequence (Q99685 whole entry): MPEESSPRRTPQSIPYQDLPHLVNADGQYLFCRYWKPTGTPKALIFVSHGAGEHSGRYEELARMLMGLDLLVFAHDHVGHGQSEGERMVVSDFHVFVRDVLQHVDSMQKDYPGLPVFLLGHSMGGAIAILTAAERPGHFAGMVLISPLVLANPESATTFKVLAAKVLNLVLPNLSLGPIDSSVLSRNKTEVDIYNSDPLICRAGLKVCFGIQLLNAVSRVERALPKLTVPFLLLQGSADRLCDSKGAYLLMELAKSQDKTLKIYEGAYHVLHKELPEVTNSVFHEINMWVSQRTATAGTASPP
Test: MAGL Inhibitory Activity Assay
Procedure: MAGL inhibitory activity by determining the enzymatic activity by following the hydrolysis of the natural substrate 2-arachidonoylglycerol (2-AG) resulting in arachidonic acid, which can be followed by mass spectrometry. This assay is hereinafter abbreviated “2-AG assay”. The 2-AG assay was carried out in 384 well polypropylene assay plates. Compound dilutions were made in 100% DMSO in a polypropylene plate in 3-fold dilution steps to give a final concentration range in the assay from 12.5 μM to 0.8 pM. Compound dilutions were added to MAGL protein in assay buffer (50 mM TRIS, 1 mM EDTA, 0.01% (v/v) Tween-20, 2.5% (v/v) DMSO). After shaking, the plate was incubated for 15 min at RT. To start the reaction, 2-arachidonoylglycerol in assay buffer was added. The final concentrations in the assay was 50 pM for MAGL protein and […] 2-arachidonoylglyerol. After shaking and 30 min incubation at RT, the reaction was quenched by the addition of two assay volumes of acetonitrile containing 4 μM of d8-arachidonic acid. The amount of arachidonic acid formed was traced by an online SPE system (Agilent Rapidfire) coupled to a triple quadrupole mass spectrometer.

## COc1cccc(C(=O)N2CCc3c(nn(C)c3-c3cc(Cl)cc(CC(N)=O)c3)[C@H]2C)c1Cl [US20250059185, Example 15]
  IC50: 0.152 µM
